Measurements taken from patent US20250243176A1, “(S)-1-(1-ACRYLOYLPIPERIDIN-3-YL)-2-FLUORO-5,6,7,8,9,10-HEXAHYDROCYCLO HEPTA[B]INDOLE-4-CARBOXAMIDE, AND RELATED CRYSTALLINE FORMS, COMPOSITIONS, AND METHODS THEREOF” (GB005, Inc., priority 2021, published 2025).
In brackets after ≈: the same amount, converted by molar mass. Entries after “also recorded” stand apart in the source; their conditions may differ.

Tests used:
Format in all cases: physicochemical
[1] = Approximate solubility, solvent addition method, visual assessment
Description: The approximate solubility of the initial solid was determined using a solvent addition method via visual assessment of samples.
Values are rounded to nearest whole number and reported as “<” if dissolution was not observed, and as “>” if dissolution occurred after addition of first aliquot.

[2] = Dynamic vapor sorption (DVS)
Description: Moisture sorption/desorption data was collected on a Vsorp Dynamic Moisture Sorption Analyzer (ProUmid GmbH & Co. KG, Germany). The sample was placed into a tared sample chamber and automatically weighed. • Sample temperature 25° C. • Cycle: Full cycle • Adsorption 0, 10, 20, 30, 40, 50, 60, 70, 80, 90 • Desorption 80, 70, 60, 50, 40, 30, 20, 10, 0

[3] = Competition slurry / inter-conversion study of Form I and Form III; conditions: competition slurry of Form I and Form III in water and heptane; RT to 80° C.
Description: Equal amounts of Form I and Form III were mixed in water and heptane to form slurries and stirred at RT (˜25° C.) or 80° C.

[4] = Solid-state stability of Form III
Description: The solid-state stability of Compound 1, Form III was examined in duplicate (sample 1 and sample 2) for 7 days under the conditions below and the resultant solids analyzed by XRPD: • 40° C./75% relative humidity (open); and • 60° C. (capped).
The solid-state stability of Compound 1, Form III was also examined for 3 months under the conditions below: • 40° C./75% relative humidity; and • 25° C./60% relative humidity

[5] = Grinding (mechanical treatment) of Form III
Description: Polymorph screening of Compound 1 was conducted using various crystallization methods, including slurry, cooling and evaporative crystallization, anti-solvent precipitation, thermal and mechanical treatment.

[6] = Solubility testing in bio-relevant media (Form III); conditions: 37° C.; for Solubility / solubility at 1 h: 1 h; for Solubility / solubility at 4 h: 4 h; for Solubility / solubility at 24 h: 24 h; for solubility at 1 h / solubility at 4 h / solubility at 24 h: thermodynamic from solid
Description: FaSSIF Buffer Solution: 6 mL 0.2 M NaOH, 388.7 mg of NaH2PO4, and 608.2 mg of NaCl were dissolved and diluted to 100 mL with water. The pH was 6.51. FaSSIF Media: 34.56 mg of SIF powder was dissolved in 15 mL of FaSSIF buffer solution. The solution was stirred and equilibrated at ambient temperature with light protection for 2 hours. SIF powder was purchased from Biorelevant.com.
FeSSIF Buffer Solution: 408.4 mg of NaOH, 868.5 mg of acetic acid, and 1.1802 g of NaCl were dissolved and diluted to 100 mL with water. The pH of the solution was 4.98. FeSSIF Media: 168.42 mg of SIF powder was dissolved in 15 mL of FeSSIF buffer solution. The solution was protected from light.
FaSSGF Buffer Solution: 222 mg of NaCl were dissolved with water, then added 1N HCl adjust the pH to 1.6. […] The solution was stirred and equilibrated at ambient temperature with light protection for 2 hours.
FaSSIF-V2 Buffer Solution: 154.4 mg NaOH, 246.7 mg of maleic acid and 445.6 mg of NaCl were dissolved and diluted to 100 mL with water. The pH was 6.51. FaSSIF-V2 Media: 28.64 mg of FaSSIF-V2 powder (purchased from Biorelevant.com) was dissolved in 8 mL of FaSSIF-V2 buffer solution. The solution was stirred and equilibrated at ambient temperature with light protection for 2 hours.
FeSSIF-V2 Buffer Solution: […] of NaOH, 710 mg of maleic acid, and 814.4 mg of NaCl were dissolved and diluted to 100 mL with water. The pH of the solution was 5.8. FeSSIF-V2 Media: 156.16 mg of FeSSIF-V2 powder was dissolved in 8 mL of FeSSIF-V2 buffer solution. The solution was protected from light.
Samples were prepared in duplicate for each medium. The suspensions were shaken at 37° C. for up to 24 hours.

With `C=CC(=O)N1CCC[C@@H](c2c(F)cc(C(N)=O)c3[nH]c4c(c23)CCCCC4)C1` [starting material, (S)-1-(1-acryloylpiperidin-3-yl)-2-fluoro-5,6,7,8,9,10-hexahydrocyclohepta[b]indole-4-carboxamide] as the compound, how does the Solubility ([1]; 1,4-dioxane) read?
The Solubility was about 20000 µg/mL (≈ 52200 µM).

And the Solubility ([1]; 1,4-dioxane, organic solvent or mixture, thermodynamic from solid, 1,4-dioxane, read-out: Solubility)?
The Solubility was over 20000 µg/mL.

And the Solubility ([1]; 2-butanone (MEK), organic solvent or mixture, thermodynamic from solid, 2-Butanone (MEK), read-out: Solubility)?
Its Solubility is about 8300 µg/mL (≈ 21600 µM).

What about the Solubility ([1]; 2-propanol (IPA), organic solvent or mixture, thermodynamic from solid, 2-Propanol (IPA), read-out: Solubility) of the same compound?
The Solubility was about 4200 µg/mL (≈ 11000 µM).

And the Solubility ([1]; Dimethyl sulfoxide (DMSO))?
The Solubility was over 250000 µg/mL.

And the Solubility ([1]; Tetrahydrofuran (THF))?
The Solubility was about 25000 µg/mL (≈ 65200 µM).

And the Solubility ([1]; Water)?
Its Solubility is under 600 µg/mL.

What about the Solubility ([1]; acetone, organic solvent or mixture, thermodynamic from solid, Acetone, read-out: Solubility) of the same compound?
Its Solubility is about 7100 µg/mL (≈ 18500 µM).

What about the Solubility ([1]; acetonitrile, organic solvent or mixture, thermodynamic from solid, Acetonitrile, read-out: Solubility) of the same compound?
Its Solubility is about 1700 µg/mL (≈ 4430 µM).

And the Solubility ([1]; dimethyl sulfoxide (DMSO), organic solvent or mixture, thermodynamic from solid, Dimethyl sulfoxide (DMSO), read-out: Solubility)?
The Solubility was over 250000 µg/mL.

What about the Solubility ([1]; ethanol, organic solvent or mixture, thermodynamic from solid, Ethanol, read-out: Solubility) of the same compound?
Its Solubility is about 5000 µg/mL (≈ 13000 µM).

And the Solubility ([1]; ethyl acetate, organic solvent or mixture, thermodynamic from solid, Ethyl acetate, read-out: Solubility)?
Its Solubility is about 2000 µg/mL (≈ 5220 µM).

What about the Solubility ([1]; isopropyl acetate, organic solvent or mixture, thermodynamic from solid, Isopropyl acetate, read-out: Solubility) of the same compound?
The Solubility was about 1500 µg/mL (≈ 3910 µM).

And the Solubility ([1]; methanol, organic solvent or mixture, thermodynamic from solid, Methanol, read-out: Solubility)?
Its Solubility is about 7100 µg/mL (≈ 18500 µM).

And the Solubility ([1]; n-Heptane)?
Its Solubility is under 600 µg/mL.

And the Solubility ([1]; n-butanol (NBA), organic solvent or mixture, thermodynamic from solid, n-Butanol (NBA), read-out: Solubility)?
Its Solubility is about 2300 µg/mL (≈ 6000 µM).

And the Solubility ([1]; n-heptane, organic solvent or mixture, thermodynamic from solid, n-Heptane, read-out: Solubility)?
Its Solubility is under 600 µg/mL.

What about the Solubility ([1]; tetrahydrofuran (THF), organic solvent or mixture, thermodynamic from solid, Tetrahydrofuran (THF), read-out: Solubility) of the same compound?
Its Solubility is over 20000 µg/mL.

And the Solubility ([1]; toluene, organic solvent or mixture, thermodynamic from solid, Toluene, read-out: Solubility)?
Its Solubility is about 1300 µg/mL (≈ 3390 µM).

What about the Solubility ([1]; water, thermodynamic from solid, Water, read-out: Solubility) of the same compound?
Its Solubility is under 600 µg/mL.

With `C=CC(=O)N1CCC[C@@H](c2c(F)cc(C(N)=O)c3[nH]c4c(c23)CCCCC4)C1` [Form III, (S)-1-(1-acryloylpiperidin-3-yl)-2-fluoro-5,6,7,8,9,10-hexahydrocyclohepta[b]indole-4-carboxamide] as the compound, how does the hygroscopicity ([2]; DVS) read?
The hygroscopicity was “non-hygroscopic”.

What about the “crystal Form after DVS testing” value ([2]; XRPD before and after DVS) of the same compound?
Its value is “remained unchanged”.

What about the “weight gain (DVS)” value ([2]; up to 90% RH, 25° C.) of the same compound?
Its value is under 0.5%.

And the “relative stability of crystal forms” value [3]?
Its value is “most stable Form; also recorded: more stable than Form I”.

What about the solid-state stability ([4]; 3 months, 40° C./75% relative humidity and 25° C./60% relative humidity) of the same compound?
Its solid-state stability is “stable”.

What about the solid-state stability ([4]; 7 days, 40° C./75% relative humidity (open) and 60° C. (capped)) of the same compound?
The solid-state stability was “chemically and physically stable”.

What about the “crystal form after grinding” value [5] of the same compound?
The value was “remained unchanged”.

And the crystallinity after grinding [5]?
The crystallinity after grinding was “decreased slightly”.

And the Solubility ([6]; FaSSGF, pH 1.6, pH at 24 h 1.7)?
The Solubility was “<LOQ”.

What about the Solubility ([6]; pH 5.8 Buffer, pH at 24 h 5.8) of the same compound?
Its Solubility is “<LOQ”.

And the Solubility ([6]; pH 6.5 Buffer, pH at 24 h 6.6)?
Its Solubility is “<LOQ”.

What about the solubility at 1 h ([6]; FaSSIF, pH 6.5) of the same compound?
The solubility at 1 h was 6 µg/mL (≈ 15.6 µM).

And the solubility at 4 h ([6]; FaSSIF, pH 6.5)?
Its solubility at 4 h is 5 µg/mL (≈ 13 µM).

And the solubility at 24 h ([6]; FaSSIF, pH 6.5, pH at 24 h 6.5)?
The solubility at 24 h was 7 µg/mL (≈ 18.3 µM).

And the solubility at 1 h ([6]; FaSSIF-V2, pH 6.5)?
Its solubility at 1 h is 4 µg/mL (≈ 10.4 µM).

And the solubility at 4 h ([6]; FaSSIF-V2, pH 6.5)?
Its solubility at 4 h is 4 µg/mL (≈ 10.4 µM).

What about the solubility at 24 h ([6]; FaSSIF-V2, pH 6.5, pH at 24 h 6.6) of the same compound?
The solubility at 24 h was 4 µg/mL (≈ 10.4 µM).

What about the solubility at 1 h ([6]; FeSSIF, pH 5.0) of the same compound?
Its solubility at 1 h is 73 µg/mL (≈ 190 µM).

What about the solubility at 4 h ([6]; FeSSIF, pH 5.0) of the same compound?
Its solubility at 4 h is 75 µg/mL (≈ 196 µM).

And the solubility at 24 h ([6]; FeSSIF, pH 5.0, pH at 24 h 5.0)?
Its solubility at 24 h is 90 µg/mL (≈ 235 µM).

What about the solubility at 1 h ([6]; FeSSIF-V2, pH 5.8) of the same compound?
Its solubility at 1 h is 120 µg/mL (≈ 313 µM).

And the solubility at 4 h ([6]; FeSSIF-V2, pH 5.8)?
Its solubility at 4 h is 200 µg/mL (≈ 522 µM).

What about the solubility at 24 h ([6]; FeSSIF-V2, pH 5.8, pH at 24 h 5.9) of the same compound?
The solubility at 24 h was 180 µg/mL (≈ 469 µM).
